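Cultured in 96-well plates, cells were exposed to test compound for 48 hours across five concentrations. TGI is the concentration that stops growth completely.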
Tests used:
Assay in all cases: inhibition of tumour cell growth, NCI panel, 48 h
M14 melanoma = system: M14 melanoma
IGROV1 ovarian = system: IGROV1 ovarian
PC-3 prostate = system: PC-3 prostate
SK-OV-3 ovarian = system: SK-OV-3 ovarian
COLO 205 colon = system: COLO 205 colon
SF-295 CNS = system: SF-295 CNS
SK-MEL-2 melanoma = system: SK-MEL-2 melanoma
A498 renal = system: A498 renal
UO-31 renal = system: UO-31 renal
BT-549 breast = system: BT-549 breast
HOP-62 NSCLC = system: HOP-62 NSCLC
786-0 renal = system: 786-0 renal
U251 CNS = system: U251 CNS
EKVX NSCLC = system: EKVX NSCLC
A549 NSCLC = system: A549 NSCLC
SF-268 CNS = system: SF-268 CNS
NCI-H23 lung = system: NCI-H23 lung
ACHN renal = system: ACHN renal
SR leukemia = system: SR leukemia

| Structure (SMILES) | TGI (M14 melanoma) [µM] | TGI (IGROV1 ovarian) [µM] | TGI (PC-3 prostate) [µM] | TGI (SK-OV-3 ovarian) [µM] | TGI (COLO 205 colon) [µM] | TGI (SF-295 CNS) [µM] | TGI (SK-MEL-2 melanoma) [µM] | TGI (A498 renal) [µM] | TGI (UO-31 renal) [µM] | TGI (BT-549 breast) [µM] | TGI (HOP-62 NSCLC) [µM] | TGI (786-0 renal) [µM] | TGI (U251 CNS) [µM] | TGI (EKVX NSCLC) [µM] | TGI (A549 NSCLC) [µM] | TGI (SF-268 CNS) [µM] | TGI (NCI-H23 lung) [µM] | TGI (ACHN renal) [µM] | TGI (SR leukemia) [µM] |
| --- | --- | --- | --- | --- | --- | --- | --- | --- | --- | --- | --- | --- | --- | --- | --- | --- | --- | --- | --- |
| Cc1[nH]c2ncn3ncnc3c2c1Cc1ccccc1 | > 100 | > 100 | > 100 | > 100 | > 100 | > 100 | > 100 | > 100 | > 100 | > 100 | > 100 | > 100 | > 100 | > 100 | > 100 | > 100 | > 100 | > 100 |  |
| C/C(O)=C(/C=N\C(=S)Nc1ccc(Cl)c(Cl)c1)C(=O)Nc1ccccc1C | > 100 | > 100 |  | > 100 | > 100 | > 100 | > 100 | 79.6 | > 100 | > 100 | > 100 | > 100 | > 100 | > 100 | > 100 | > 100 | 76.8 | > 100 |  |
| COc1ccc(-c2nc(N(C)C)c3ccccc3n2)cc1 | 44.2 | > 100 | 58.8 | 48.2 | 29.6 | 46.3 | 41.7 |  | 15.8 | 43.5 | 51.5 | 32.3 | 80 | 22.3 | 46.8 | 99.3 | 69 | 53.5 | 29.1 |
| CC/C(Cl)=N\OC(=O)Nc1ccccc1OC(F)(F)F | 23.3 | 30.8 | 33.5 | 37.3 | 3.79 | 33.5 | 32.8 | 45.4 | 18.2 | 11.5 | 37.3 | 23.5 | > 57.8 | 15.9 | 51.5 | > 57.8 | 45.8 | 3.69 |  |
| CC(=O)OCc1cccc(O)c1C(=O)CCC=C(C)C | > 100 | > 100 | > 100 | > 100 | > 100 | > 100 | > 100 | > 100 | > 100 |  | > 100 | > 100 | > 100 | > 100 | > 100 | > 100 | > 100 | > 100 | > 100 |
| OC(c1ccc(F)cc1)C(F)(F)c1nc(-c2ccccc2)no1 (stereo not given) | 32.7 | > 100 | 63.4 |  |  |  | 39.1 | 39.2 | 35.4 | 36.8 |  | 44.2 | 29.2 | 63.7 |  | 62.9 | 74.7 | 67.2 |  |
| CN(C)C(=S)N/N=C\C(=N/NC(=S)N(C)C)c1ccccc1 | > 100 | > 48.2 | > 100 | > 100 | > 100 | > 100 | > 100 | 49.1 | > 100 | > 100 | > 100 | > 100 | > 100 | > 100 | > 100 | > 72.3 | > 45.4 | > 100 |  |
| CC(=O)O[C@H]1C(=O)[C@@]2(C)[C@H]([C@H](OC(=O)c3ccccc3)[C@]3(O)C[C@H](OC(=O)[C@H](O)[C@@H](NC(=O)c4ccccc4)C4CCCCC4)C(C)=C1C3(C)C)[C@]1(OC(C)=O)CO[C@@H]1C[C@@H]2O | 24 | > 61.3 | 2.91 |  | < 0.01 | 0.0606 | > 100 |  | 36.2 | > 100 | 1.45 | > 100 | > 43 | > 100 | > 100 | > 100 | > 100 | > 72.8 | 25.1 |
| O=C1C=C(c2c(-c3ccccc3)[nH]c3ccccc23)C(=O)N1c1ccccc1 | 30.4 | 51.4 | 21.8 | > 100 | 24.5 | 25.3 | 28.4 | 23.1 | 28.9 | 24.1 | 1.06 | 21.1 | 26.8 | 38.5 | 46.4 | 21.5 | 38.6 | 71.4 |  |
| Cc1nc2c(=O)[nH]c3ccccc3c2o1 | > 100 | > 100 | > 100 | > 100 | > 100 | > 100 | > 100 | > 100 | > 100 | > 100 | > 100 | > 100 | > 100 | > 100 | > 100 | > 100 | > 100 | > 100 |  |
| CC(=O)Nc1ccc2c3c(cc(O)c2c1)N(C(=O)CCCC(=O)Nc1ccc2c4c(cc(O)c2c1)N(C(=O)OC(C)(C)C)CC4CCl)CC3CCl (stereo not given) | 13.2 | > 50 | > 15.6 | > 15.6 | 6.05 | > 42.9 | 1.84 | 2.63 | > 50 | 3.75 | > 25.2 | > 13.1 | 4.38 | > 35.3 | > 50 |  | 16.7 | 31.2 |  |
| COC(=O)[C@@]12CC[C@]1(C(=O)OC)C1C(C)=CC(=O)O[C@@]12C (stereo not given in full) | > 100 | > 100 | > 100 | > 100 | > 100 | > 100 |  |  | > 100 | > 100 | > 100 | > 100 | > 100 | > 100 | > 100 | > 100 | > 100 | > 100 | > 100 |
| CCOC(=O)C1=C(OS(=O)(=O)C(F)(F)F)CCCC1 | > 100 | > 100 | > 100 | > 100 | > 100 | > 100 | > 100 | > 100 | > 100 |  | > 100 | > 100 | > 100 | > 100 | > 100 | > 100 | > 100 | > 100 | > 100 |

From PubChem BioAssay (NCI)
